# Test results taken from patent publication US10513523B2, “Imidazopyrazines and pyrazolopyrimidines and their use as AMPA receptor modulators” (Janssen Pharmaceutica NV, priority 2015, dated 2019).
# Molecular target: GluA1o-γ8 (GRIA1o-CACNG8 fusion construct; TARP γ8 dependent AMPA receptor) (Homo sapiens (Human), UniProt P42261+Q8WXS5)
# Assay: Calcium flux assay (FLIPR), inhibition of glutamate response of GluA1o-γ8 channel
# Format: cell-based
# Conditions: HEK293 cells stably expressing GRIA1o-CACNG8 fusion; 15 μM glutamate; pIC50 = negative log of IC50 in molar; read-out: GluR1-γ8 (pIC50) (converted)
# Description: This assay was used to test compounds for their ability to inhibit TARP γ8 dependent AMPA receptor activity. The AMPA receptor is a non-selective cation channel activated by glutamate. Ionotropic glutamate receptors normally desensitize too rapidly to allow detectable calcium influx in a FLIPR assay (Strange et al. (2006). “Functional characterisation of homomeric ionotropic glutamate receptors GluR1-GluR6 in a fluorescence-based high throughput screening assay.” Comb Chem High Throughput Screen 9(2): 147-158). But, this desensitization is incomplete, and a substantial steady-state current remains in the sustained presence of glutamate (Cho et al. (2007). “Two families of TARP isoforms that have distinct effects on the kinetic properties of AMPA receptors and synaptic currents.” Neuron 55(6): 890-904).
# An in vitro assay was used to determine the potency of test compounds as inhibitors of the glutamate response of the channel formed by GluA1o-γ8. To ensure a 1:1 stoichiometry of GluA10 and γ8 subunits in the expressed channel, a fusion of the cDNAs for GRIA1o and CACNG8 was used. Following Shi et al (2009) “The stoichiometry of AMPA receptors and TARPs varies by neuronal cell type.” Neuron 62(5): […]), the C-terminus of the cDNA for GRI1o was fused to the N-terminus of the cDNA for γ8. The linker sequence was […]. […] A clonal cell line in HEK293 cells stably expressing this construct, with a geneticin selection marker, was generated for use in this assay. Cell expressing the GRIA1o-CACNG8 fusion construct were grown in a monolayer in 96- or 384-well microtiter plates. They were washed with assay buffer (135 mM NaCl, 4 mM KCl, 3 mM CaCl2, 1 mM MgCl2, 5 mM glucose, 10 mM HEPES, pH 7.4, 300 mOs) using a Biotek EL405 plate washer. The cells were then loaded with a calcium-sensitive dye (Calcium-5 or Calcium-6, Molecular Devices) and the test compounds at a range of concentrations. Calcium flux following the addition of 15 μM glutamate was monitored using a Molecular Devices FLIPR Tetra.
# The fluorescence in each well was normalized to the fluorescence of negative and positive control wells. […] The responses to glutamate as functions of the test compound concentrations were fitted to a four-parameter logistic function. The fitted parameter corresponding to the midpoint was taken to be the potency of inhibition of the compound.
# Chain of GluA1o-γ8 (GRIA1o-CACNG8 fusion construct; TARP γ8 dependent AMPA receptor) (P42261 other isoform, or with tags, fused parts or gaps): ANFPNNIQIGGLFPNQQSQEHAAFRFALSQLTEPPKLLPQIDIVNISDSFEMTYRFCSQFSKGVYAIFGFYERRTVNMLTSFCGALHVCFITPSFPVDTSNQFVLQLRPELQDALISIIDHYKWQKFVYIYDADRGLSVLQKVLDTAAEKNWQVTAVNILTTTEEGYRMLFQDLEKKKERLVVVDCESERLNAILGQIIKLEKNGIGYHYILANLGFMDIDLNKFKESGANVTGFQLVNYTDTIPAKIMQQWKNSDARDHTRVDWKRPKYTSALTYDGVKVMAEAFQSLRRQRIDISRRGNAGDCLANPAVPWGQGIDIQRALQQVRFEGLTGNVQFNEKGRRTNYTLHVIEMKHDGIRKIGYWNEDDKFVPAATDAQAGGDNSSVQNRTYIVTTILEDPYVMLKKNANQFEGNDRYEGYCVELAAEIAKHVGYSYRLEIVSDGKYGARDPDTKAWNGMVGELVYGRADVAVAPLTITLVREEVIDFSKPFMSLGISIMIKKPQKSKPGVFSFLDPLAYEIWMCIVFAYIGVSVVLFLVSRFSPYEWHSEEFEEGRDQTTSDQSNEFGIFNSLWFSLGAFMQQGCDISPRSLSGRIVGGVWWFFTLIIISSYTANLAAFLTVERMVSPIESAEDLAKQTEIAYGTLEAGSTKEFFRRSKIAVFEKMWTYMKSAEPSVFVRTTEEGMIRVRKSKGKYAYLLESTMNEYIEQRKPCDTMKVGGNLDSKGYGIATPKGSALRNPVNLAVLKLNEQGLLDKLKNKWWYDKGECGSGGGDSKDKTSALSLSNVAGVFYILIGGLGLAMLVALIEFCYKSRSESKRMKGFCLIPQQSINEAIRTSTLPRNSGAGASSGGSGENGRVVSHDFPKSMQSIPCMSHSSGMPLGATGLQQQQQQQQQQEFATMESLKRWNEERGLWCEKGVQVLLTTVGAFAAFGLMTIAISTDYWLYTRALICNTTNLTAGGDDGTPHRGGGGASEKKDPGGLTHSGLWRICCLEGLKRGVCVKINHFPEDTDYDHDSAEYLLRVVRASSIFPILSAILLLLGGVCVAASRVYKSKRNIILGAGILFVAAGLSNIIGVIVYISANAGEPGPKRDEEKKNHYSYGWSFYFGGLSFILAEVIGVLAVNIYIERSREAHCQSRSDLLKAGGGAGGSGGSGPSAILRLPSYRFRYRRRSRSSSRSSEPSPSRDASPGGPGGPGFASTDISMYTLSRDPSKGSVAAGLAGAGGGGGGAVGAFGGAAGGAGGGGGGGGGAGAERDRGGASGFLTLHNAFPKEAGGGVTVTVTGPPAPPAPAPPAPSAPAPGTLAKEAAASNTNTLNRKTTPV
row,SMILES,IC50 [nM]
1,"Oc1ccc(-c2c(-c3ccc(F)cc3)nc3c(N4CCC(F)(F)CC4)nccn23)cc1 [Example 28, 4-[8-(4,4-Difluoro-1-piperidyl)-2-(4-fluorophenyl)imidazo[1,2-a]pyrazin-3-yl]phenol]",158
2,"Oc1ccc(-c2c(-c3ccc(F)cc3)nc3c(N4CCCC(F)(F)C4)nccn23)cc1 [Example 29, 4-[8-(3,3-Difluoro-1-piperidyl)-2-(4-fluorophenyl)imidazo[1,2-a]pyrazin-3-yl]phenol]",31.6
3,"Fc1ccc(-c2nc3c(N4CCOCC4)nccn3c2-c2ccc3[nH]nnc3c2)cc1 [Example 30, 4-[3-(1H-Benzotriazol-5-yl)-2-(4-fluorophenyl)imidazo[1,2-a]pyrazin-8-yl]morpholine]",79.4
4,"Fc1ccc(-c2nc3c(N4CCOCC4)nccn3c2-c2ccc3[nH]cnc3c2)cc1 [Example 31, 4-[3-(1H-Benzimidazol-5-yl)-2-(4-fluorophenyl)imidazo[1,2-a]pyrazin-8-yl]morpholine]",631
5,"O=C1CN(c2nccn3c(-c4ccc5c(c4)CC(=O)N5)c(-c4ccc(F)cc4)nc23)CCN1 [Example 32, 5-[2-(4-Fluorophenyl)-8-(3-oxopiperazin-1-yl)imidazo[1,2-a]pyrazin-3-yl]indolin-2-one]",0.501
6,"O=C1CN(c2nccn3c(-c4ccc5[nH]ncc5c4)c(-c4ccc(F)cc4)nc23)CCN1 [Example 33, 4-[2-(4-Fluorophenyl)-3-(1H-indazol-5-yl)imidazo[1,2-a]pyrazin-8-yl]piperazin-2-one]",0.2
7,"O=C1CN(c2nccn3c(-c4ccc5[nH]c(=O)[nH]c5c4)c(-c4ccc(F)cc4)nc23)CCN1 [Example 34, 5-[2-(4-Fluorophenyl)-8-(3-oxopiperazin-1-yl)imidazo[1,2-a]pyrazin-3-yl]-1,3-dihydrobenzimidazol-2-one]",1.26
8,"O=C1Cc2cc(-c3c(-c4ccc(F)c(F)c4)nc4c(N5CCOCC5)nccn34)ccc2N1 [Example 35, 5-[2-(3,4-Difluorophenyl)-8-morpholino-imidazo[1,2-a]pyrazin-3-yl]indolin-2-one]",0.501
9,"CC(C)(C)OC(=O)N1CCN(c2nccn3c(-c4ccc5c(c4)CC(=O)N5)c(Cc4ccccc4)nc23)CC1 [Example 36, tert-Butyl 4-[2-benzyl-3-(2-oxoindolin-5-yl)imidazo[1,2-a]pyrazin-8-yl]piperazine-1-carboxylate]",0.316
10,"O=C1CN(c2nccn3c(-c4ccc5c(c4)CC(=O)N5)c(Cc4ccccc4)nc23)CCN1 [Example 38, 5-[2-Benzyl-8-(3-oxopiperazin-1-yl)imidazo[1,2-a]pyrazin-3-yl]indolin-2-one]",1
11,"CC1COCCN1c1nccn2c(-c3ccc4c(c3)CC(=O)N4)c(-c3ccc(F)cc3)nc12 (centres unmarked) [Example 39, 5-[2-(4-Fluorophenyl)-8-(3-methylmorpholin-4-yl)imidazo[1,2-a]pyrazin-3-yl]indolin-2-one]",0.794
12,"O=C1Cc2cc(-c3c(-c4ccc(F)cc4)nc4c(NC5CCNC5=O)nccn34)ccc2N1 (centres unmarked) [Example 40, 5-[2-(4-Fluorophenyl)-8-[(2-oxopyrrolidin-3-yl)amino]imidazo[1,2-a]pyrazin-3-yl]indolin-2-one]",251
13,"O=C1Cc2cc(-c3c(-c4ccc(F)cc4)nc4c(N5CCC(O)C5)nccn34)ccc2N1 (centres unmarked) [Example 41, 5-[2-(4-Fluorophenyl)-8-(3-hydroxypyrrolidin-1-yl)imidazo[1,2-a]pyrazin-3-yl]indolin-2-one]",0.631
14,"O=C1Cc2cc(-c3c(-c4ccc(F)cc4)nc4c(N5CCOC(C(F)(F)F)C5)nccn34)ccc2N1 (centres unmarked) [Example 42, 5-[2-(4-Fluorophenyl)-8-[2-(trifluoromethyl)morpholin-4-yl]imidazo[1,2-a]pyrazin-3-yl]indolin-2-one]",7.94
15,"C[C@H]1COCCN1c1nccn2c(-c3ccc4c(c3)CC(=O)N4)c(-c3ccc(F)cc3)nc12 [Example 43, 5-[2-(4-Fluorophenyl)-8-[(3S)-3-methylmorpholin-4-yl]imidazo[1,2-a]pyrazin-3-yl]indolin-2-one]",0.631
16,"C[C@@H]1COCCN1c1nccn2c(-c3ccc4c(c3)CC(=O)N4)c(-c3ccc(F)cc3)nc12 [Example 44, 5-[2-(4-Fluorophenyl)-8-[(3R)-3-methylmorpholin-4-yl]imidazo[1,2-a]pyrazin-3-yl]indolin-2-one]",7.94

# The remaining lines, values ahead:
row,IC50 [nM],SMILES
1,1,"O=C1Cc2cc(-c3c(-c4ccc(F)cc4)nc4c(N5CCCC5)nccn34)ccc2N1 [Example 45, 5-[2-(4-Fluorophenyl)-8-pyrrolidin-1-yl-imidazo[1,2-a]pyrazin-3-yl]indolin-2-one]"
2,5.01,"CN(c1nccn2c(-c3ccc4c(c3)CC(=O)N4)c(-c3ccc(F)cc3)nc12)C1CC1 [Example 46, 5-[8-[Cyclopropyl(methyl)amino]-2-(4-fluorophenyl)imidazo[1,2-a]pyrazin-3-yl]indolin-2-one]"
3,0.398,"O=C1Cc2cc(-c3c(-c4ccc(F)cc4)nc4c(N5CCS(=O)(=O)CC5)nccn34)ccc2N1 [Example 47, 5-[8-(1,1-Dioxo-1,4-thiazinan-4-yl)-2-(4-fluorophenyl)imidazo[1,2-a]pyrazin-3-yl]indolin-2-one]"
4,31.6,"CC1(C)COCCN1c1nccn2c(-c3ccc4c(c3)CC(=O)N4)c(-c3ccc(F)cc3)nc12 [Example 50, 5-[8-(3,3-Dimethylmorpholin-4-yl)-2-(4-fluorophenyl)imidazo[1,2-a]pyrazin-3-yl]indolin-2-one]"
5,3.98,"CCN(CC)c1nccn2c(-c3ccc4c(c3)CC(=O)N4)c(-c3ccc(F)cc3)nc12 [Example 51, 5-[8-(Diethylamino)-2-(4-fluorophenyl)imidazo[1,2-a]pyrazin-3-yl]indolin-2-one]"
6,0.316,"O=C1Cc2cc(-c3c(-c4ccc(F)cc4)nc4c(N5CCCC(O)C5)nccn34)ccc2N1 (centres unmarked) [Example 54, 5-[2-(4-Fluorophenyl)-8-(3-hydroxy-1-piperidyl)imidazo[1,2-a]pyrazin-3-yl]indolin-2-one]"
7,0.2,"O=C1Cc2cc(-c3c(-c4ccc(F)cc4)nc4c(N5CCC6(CC5)OCCO6)nccn34)ccc2N1 [Example 55, 5-[8-(1,4-Dioxa-8-azaspiro[4.5]decan-8-yl)-2-(4-fluorophenyl)imidazo[1,2-a]pyrazin-3-yl]indolin-2-one]"
8,7.94,"O=C1Cc2cc(-c3c(C4CCCCC4)nc4c(N5CCOCC5)nccn34)ccc2N1 [Example 56, 5-(2-Cyclohexyl-8-morpholino-imidazo[1,2-a]pyrazin-3-yl)indolin-2-one]"
9,15.8,"O=C1Cc2cc(-c3c(C4CCCC4)nc4c(N5CCOCC5)nccn34)ccc2N1 [Example 57, 5-(2-Cyclopentyl-8-morpholino-imidazo[1,2-a]pyrazin-3-yl)indolin-2-one]"
10,1.58,"O=C1Cc2cc(-c3c(-c4ccc(F)cc4)nc4c(N5CCC5)nccn34)ccc2N1 [Example 58, 5-[8-(Azetidin-1-yl)-2-(4-fluorophenyl)imidazo[1,2-a]pyrazin-3-yl]indolin-2-one]"
11,0.501,"O=C1Cc2cc(-c3c(-c4ccc(F)cc4)nc4c(N5CC(F)C5)nccn34)ccc2N1 [Example 59, 5-[8-(3-Fluoroazetidin-1-yl)-2-(4-fluorophenyl)imidazo[1,2-a]pyrazin-3-yl]indolin-2-one]"
12,1.58,"O=C1Cc2cc(-c3c(-c4ccc(F)cc4)nc4c(N5CC(F)(F)C5)nccn34)ccc2N1 [Example 60, 5-[8-(3,3-Difluoroazetidin-1-yl)-2-(4-fluorophenyl)imidazo[1,2-a]pyrazin-3-yl]indolin-2-one]"
13,1.58,"O=C1Cc2cc(-c3c(-c4ccc(F)cc4)nc4c(N5CC(Cl)C5)nccn34)ccc2N1 [Example 61, 5-[8-(3-Chloroazetidin-1-yl)-2-(4-fluorophenyl)imidazo[1,2-a]pyrazin-3-yl]indolin-2-one]"
14,10,"CS(=O)(=O)C1CN(c2nccn3c(-c4ccc5c(c4)CC(=O)N5)c(-c4ccc(F)cc4)nc23)C1 [Example 62, 5-[2-(4-Fluorophenyl)-8-(3-methylsulfonylazetidin-1-yl)imidazo[1,2-a]pyrazin-3-yl]indolin-2-one]"
15,0.794,"O=C1Cc2cc(-c3c(-c4ccc(F)cc4)nc4c(N5CC(CO)C5)nccn34)ccc2N1 [Example 64, 5-[2-(4-Fluorophenyl)-8-[3-(hydroxymethyl)azetidin-1-yl]imidazo[1,2-a]pyrazin-3-yl]indolin-2-one]"
16,0.158,"O=C1Cc2cc(-c3c(-c4ccccc4)nc4c(N5CCOCC5)nccn34)ccc2N1 [Example 65, 5-(8-Morpholino-2-phenyl-imidazo[1,2-a]pyrazin-3-yl)indolin-2-one]"
